Results published in patent publication US8541588B2, “Sulfonamide derivatives” (Pfizer Limited, priority 2009, dated 2013).

molecular target: T1, Nav1.7 (or SCN9A) channel; HEK cells stably transfected with hSCN9A (Homo sapiens, UniProt Q15858); assay: Nav1.7 block, PatchXpress 7000 automated whole-cell voltage clamp, estimated IC50 (EIC50); format: cell-based; conditions: PatchXpress platform; hSCN9A HEK cells held at V1/2 of inactivation; estimated IC50
T1 construct: expressed in transfected cells
T1 sequence (Q15858 whole entry): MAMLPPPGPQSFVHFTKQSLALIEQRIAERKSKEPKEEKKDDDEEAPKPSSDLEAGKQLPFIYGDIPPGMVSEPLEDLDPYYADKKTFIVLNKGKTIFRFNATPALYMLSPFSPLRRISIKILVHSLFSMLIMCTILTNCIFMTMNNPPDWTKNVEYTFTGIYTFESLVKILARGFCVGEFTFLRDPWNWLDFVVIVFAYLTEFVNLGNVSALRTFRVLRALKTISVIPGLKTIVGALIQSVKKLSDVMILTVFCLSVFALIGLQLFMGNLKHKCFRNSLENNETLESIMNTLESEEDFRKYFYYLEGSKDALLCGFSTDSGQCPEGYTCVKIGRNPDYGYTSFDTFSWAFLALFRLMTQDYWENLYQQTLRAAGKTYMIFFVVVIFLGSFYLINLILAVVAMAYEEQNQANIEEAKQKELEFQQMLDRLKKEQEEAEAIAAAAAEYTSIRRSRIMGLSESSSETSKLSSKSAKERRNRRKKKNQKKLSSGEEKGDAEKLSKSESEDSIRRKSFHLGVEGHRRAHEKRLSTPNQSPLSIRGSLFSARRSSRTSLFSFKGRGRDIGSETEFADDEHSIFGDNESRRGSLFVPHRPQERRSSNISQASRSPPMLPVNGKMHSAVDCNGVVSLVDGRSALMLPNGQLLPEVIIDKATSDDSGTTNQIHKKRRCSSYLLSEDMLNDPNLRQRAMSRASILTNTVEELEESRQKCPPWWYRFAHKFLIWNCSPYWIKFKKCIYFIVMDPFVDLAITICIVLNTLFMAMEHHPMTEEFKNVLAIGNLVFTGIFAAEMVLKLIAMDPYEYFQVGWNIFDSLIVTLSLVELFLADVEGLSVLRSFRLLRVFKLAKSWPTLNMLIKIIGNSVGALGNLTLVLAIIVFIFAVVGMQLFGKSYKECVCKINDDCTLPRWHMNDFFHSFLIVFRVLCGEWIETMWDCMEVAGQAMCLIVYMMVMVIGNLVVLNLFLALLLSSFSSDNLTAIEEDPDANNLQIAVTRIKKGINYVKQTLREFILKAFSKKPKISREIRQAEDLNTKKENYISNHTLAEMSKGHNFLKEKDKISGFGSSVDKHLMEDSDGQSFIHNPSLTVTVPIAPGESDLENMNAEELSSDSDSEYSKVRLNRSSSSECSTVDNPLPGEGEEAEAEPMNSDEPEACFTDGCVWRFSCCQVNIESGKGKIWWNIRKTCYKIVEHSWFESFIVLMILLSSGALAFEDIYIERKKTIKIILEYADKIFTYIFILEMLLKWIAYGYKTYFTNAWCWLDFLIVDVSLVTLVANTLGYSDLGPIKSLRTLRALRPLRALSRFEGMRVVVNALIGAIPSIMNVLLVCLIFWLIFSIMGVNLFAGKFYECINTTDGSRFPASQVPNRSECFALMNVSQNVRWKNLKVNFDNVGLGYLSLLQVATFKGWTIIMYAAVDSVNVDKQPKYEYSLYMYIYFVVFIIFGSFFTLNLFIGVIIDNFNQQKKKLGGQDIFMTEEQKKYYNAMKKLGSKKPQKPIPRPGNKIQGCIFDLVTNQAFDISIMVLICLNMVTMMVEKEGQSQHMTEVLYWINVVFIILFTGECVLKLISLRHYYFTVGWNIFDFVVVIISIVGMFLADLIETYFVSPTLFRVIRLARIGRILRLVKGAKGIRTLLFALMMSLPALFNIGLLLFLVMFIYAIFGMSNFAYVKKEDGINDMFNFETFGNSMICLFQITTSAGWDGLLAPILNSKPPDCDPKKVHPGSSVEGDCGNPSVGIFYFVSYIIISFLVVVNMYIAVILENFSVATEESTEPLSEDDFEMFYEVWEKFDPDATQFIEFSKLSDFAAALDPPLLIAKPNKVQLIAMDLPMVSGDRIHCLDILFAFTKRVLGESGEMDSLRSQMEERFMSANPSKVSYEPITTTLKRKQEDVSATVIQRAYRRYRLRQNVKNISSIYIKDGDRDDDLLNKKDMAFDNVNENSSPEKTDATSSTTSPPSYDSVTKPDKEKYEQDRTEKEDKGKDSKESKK

Row | Compound | IC50 [nM]
1 | O=S(=O)(Nc1nccs1)c1ccc(Oc2ccc(F)cc2-c2ccnn2CC(F)(F)F)c(F)c1 [Example 225, 3-fluoro-4-(4-fluoro-2-(1-(2,2,2-trifluoroethyl)-1H-pyrazol-5-yl)phenoxy)-N-(thiazol-2-yl)benzenesulfonamide] | 430
2 | COc1ccc(-c2ccccc2Oc2ccc(S(=O)(=O)Nc3ncns3)cc2C#N)cc1F [Example 48, 3-cyano-4-[(3′-fluoro-4′-methoxybiphenyl-2-yl)oxy]-N-1,2,4-thiadiazol-5-ylbenzenesulfonamide] | 900
3 | CCc1ccc(Oc2ccc(S(=O)(=O)Nc3ncns3)cc2C#N)c(-c2ccccc2)n1 [Example 19, 3-cyano-4-[(6-ethyl-2-phenylpyridin-3-yl)oxy]-N-1,2,4-thiadiazol-5-ylbenzenesulfonamide] | 720
4 | N#Cc1cc(S(=O)(=O)Nc2ncns2)ccc1Oc1ccc(Cl)cc1-c1ccnn1CCO [Example 90, 4-(4-chloro-2-(1-(2-hydroxyethyl)-1H-pyrazol-5-yl)phenoxy)-3-cyano-N-(1,2,4-thiadiazol-5-yl)benzenesulfonamide] | 100
5 | Cc1c(Cl)ccc(Oc2ccc(S(=O)(=O)Nc3nccs3)cc2C#N)c1-c1nnco1 [Example 197, 4-(4-chloro-3-methyl-2-[1,3,4]oxadiazol-2-yl-phenoxy)-3-cyano-N-thiazol-2-yl-benzenesulfonamide] | 1130

same assay, conditions: estimated IC50; hSCN9A HEK cells, PatchXpress platform; Examples 283-814

Row | Compound | IC50 [nM]
6 | CCn1nc(C(F)(F)F)cc1-c1ccc(Oc2ccc(S(=O)(=O)Nc3cnsn3)cc2C#N)cc1 [Example 341, 3-cyano-4-{4-[1-ethyl-3-(trifluoromethyl)-1H-pyrazol-5-yl]phenoxy}-N-1,2,5-thiadiazol-3-ylbenzenesulfonamide] | 3600
7 | N#Cc1cc(S(=O)(=O)Nc2ncns2)ccc1Oc1ccc(Cl)cc1-c1ccnc(Cl)c1 [Example 743, 4-[4-chloro-2-(2-chloropyridin-4-yl)phenoxy]-3-cyano-N-1,2,4-thiadiazol-5-ylbenzenesulfonamide] | 12
8 | CC(C)Oc1cc(-c2cc(F)ccc2Oc2ccc(S(=O)(=O)Nc3cscn3)cc2C#N)n(C)n1 [Example 396, 3-cyano-4-[4-fluoro-2-(3-isopropoxy-1-methyl-1H-pyrazol-5-yl)phenoxy]-N-1,3-thiazol-4-ylbenzenesulfonamide] | >3000
9 | Cn1nccc1-c1cc(C2CC2)ccc1Oc1ccc(S(=O)(=O)Nc2nccs2)cc1C#N [Example 545, 3-cyano-4-[4-cyclopropyl-2-(1-methyl-1H-pyrazol-5-yl)phenoxy]-N-1,3-thiazol-2-ylbenzenesulfonamide] | 23
10 | Cn1nccc1-c1nc(C(F)(F)F)ccc1Oc1cc(F)c(S(=O)(=O)Nc2cscn2)cc1Cl [Example 656, 5-chloro-2-fluoro-4-{[2-(1-methyl-1H-pyrazol-5-yl)-6-(trifluoromethyl)pyridin-3-yl]oxy}-N-1,3-thiazol-4-ylbenzenesulfonamide] | 270
11 | Cn1nccc1-c1cc(F)ccc1Oc1cc(F)c(S(=O)(=O)Nc2cscn2)cc1Cl [Example 657, 5-chloro-2-fluoro-4-[4-fluoro-2-(1-methyl-1H-pyrazol-5-yl)phenoxy]-N-1,3-thiazol-4-ylbenzenesulfonamide] | 83
12 | O=S(=O)(Nc1cscn1)c1cc(Cl)c(Oc2ccc(Cl)cc2-c2cn[nH]c2)cc1F [Example 661, 5-chloro-4-[4-chloro-2-(1H-pyrazol-4-yl)phenoxy]-2-fluoro-N-1,3-thiazol-4-ylbenzenesulfonamide] | 77
13 | Cc1coc(-c2ccc(Oc3ccc(S(=O)(=O)Nc4nccs4)cc3C#N)cc2)n1 [Example 317, 3-cyano-4-[4-(4-methyl-1,3-oxazol-2-yl)phenoxy]-N-1,3-thiazol-2-ylbenzenesulfonamide] | 2200
14 | Cn1nc(C(F)F)cc1-c1ccc(Oc2ccc(S(=O)(=O)Nc3nccs3)cc2C#N)cc1 [Example 383, 3-cyano-4-{4-[3-(difluoromethyl)-1-methyl-1H-pyrazol-5-yl]phenoxy}-N-1,3-thiazol-2-ylbenzenesulfonamide] | 310
15 | N#Cc1cc(S(=O)(=O)Nc2ccc(F)cn2)ccc1Oc1ccc(CN2CCC2)c(F)c1 [Example 566, 4-[4-(azetidin-1-ylmethyl)-3-fluorophenoxy]-3-cyano-N-(5-fluoropyridin-2-yl)benzenesulfonamide] | >30000
16 | O=S(=O)(Nc1nncs1)c1cc(Cl)c(Oc2ccc(Cl)cc2-c2ccnn2CCO)cc1F [Example 748, 5-chloro-4-{4-chloro-2-[1-(2-hydroxyethyl)-1H-pyrazol-5-yl]phenoxy}-2-fluoro-N-1,3,4-thiadiazol-2-ylbenzenesulfonamide] | 170
17 | N#Cc1cc(S(=O)(=O)Nc2ncns2)ccc1Oc1ccc(Cl)cc1-c1ccnn1C1CNC1 [Example 728, 4-[2-(1-azetidin-3-yl-1H-pyrazol-5-yl)-4-chlorophenoxy]-3-cyano-N-1,2,4-thiadiazol-5-ylbenzenesulfonamide] | 4.8
18 | CN1CCC(n2nccc2-c2cc(Cl)ccc2Oc2ccc(S(=O)(=O)Nc3ncns3)cc2C#N)CC1 [Example 725, 4-{4-chloro-2-[1-(1-methylpiperidin-4-yl)-1H-pyrazol-5-yl]phenoxy}-3-cyano-N-1,2,4-thiadiazol-5-ylbenzenesulfonamide] | 20

same assay, conditions: estimated IC50; hSCN9A HEK cells, PatchXpress platform; Examples 815-1040

Row | Compound | IC50 [nM]
19 | O=S(=O)(Nc1ncns1)c1cc(F)c(Oc2ccc(Cl)cc2-c2ccnc(CN3CCC3)c2)cc1F [Example 838, 4-{2-[2-(azetidin-1-ylmethyl)pyridin-4-yl]-4-chlorophenoxy}-2,5-difluoro-N-1,2,4-thiadiazol-5-ylbenzenesulfonamide] | 1.8
20 | Cn1nccc1-c1cc(Cl)ccc1Oc1ccc(S(=O)(=O)Nc2cccnn2)cc1Cl [Example 862, 3-chloro-4-[4-chloro-2-(1-methyl-1H-pyrazol-5-yl)phenoxy]-N-pyridazin-3-ylbenzenesulfonamide] | 240
21 | N#Cc1cc(S(=O)(=O)Nc2ncns2)ccc1Oc1ccc(Cl)cc1-c1ccon1 [Example 880, 4-(4-chloro-2-isoxazol-3-ylphenoxy)-3-cyano-N-1,2,4-thiadiazol-5-ylbenzenesulfonamide] | 110
22 | Cn1nccc1-c1cc(Cl)ccc1Oc1ccc(S(=O)(=O)Nc2cnccn2)cc1C#N [Example 885, 4-[4-chloro-2-(1-methyl-1H-pyrazol-5-yl)phenoxy]-3-cyano-N-pyrazin-2-ylbenzenesulfonamide] | 6300
23 | O=C(c1cccc(-c2cc(Cl)ccc2Oc2cc(F)c(S(=O)(=O)Nc3ncns3)cc2Cl)c1)N1CCC1 [Example 823, 4-{[3′-(azetidin-1-ylcarbonyl)-5-chlorobiphenyl-2-yl]oxy}-5-chloro-2-fluoro-N-1,2,4-thiadiazol-5-ylbenzenesulfonamide] | 7.4
24 | CN(C)c1cc(-c2cc(Cl)ccc2Oc2ccc(S(=O)(=O)Nc3ncns3)cc2C#N)ccn1 [Example 1026, 4-{4-Chloro-2-[2-(dimethylamino)pyridin-4-yl]phenoxy}-3-cyano-N-1,2,4-thiadiazol-5-ylbenzenesulfonamide] | 1.6
25 | O=S(=O)(Nc1ncccn1)c1cc(Cl)c(Oc2ccc(OC(F)(F)F)cc2-c2ccnnc2)cc1F [Example 945, 5-chloro-2-fluoro-4-[2-pyridazin-4-yl-4-(trifluoromethoxy)phenoxy]-N-pyrimidin-2-ylbenzenesulfonamide] | 99
